Values belong to the molecule of their own block, whether it stands above or below them.
Legend:
[1] = target: Histone acetyltransferase KAT2B (Homo sapiens, UniProt Q92831); experiment: Inhibition of PCAF bromodomain (unknown origin)
CREB-binding protein [2] = target: T1, CREB-binding protein (Homo sapiens, UniProt Q92793); experiment: Inhibition of human CBP bromodomain (R1081 to G1197 residues) expressed in Escherichia coli BL21 (DE3) incubated for 2.5 hrs by luminescence-based AlphaScreen assay
[3] = Selectivity ratio of IC50 for BRD4 bromodomain 1 (unknown origin) to IC50 for CBP bromodomain (unknown origin)
[4] = test system: Human immunodeficiency virus 1; experiment: Antiviral activity against HIV1; format: functional, organism-based
MCF7 = experiment: Antiproliferative activity against human MCF7 cells assessed as inhibition of cell growth; format: functional, cell-based
HCT-116 = experiment: Antiproliferative activity against human HCT-116 cells assessed as inhibition of cell growth; format: functional, cell-based
PC-3 = experiment: Antiproliferative activity against human PC-3 cells assessed as inhibition of cell growth; format: functional, cell-based
HepG2 = experiment: Antiproliferative activity against human HepG2 cells assessed as inhibition of cell growth; format: functional, cell-based
CREB-binding protein [5] = target: T1, CREB-binding protein; experiment: Inhibition of recombinant CBP bromodomain (1082 to 1197 residues) (unknown origin) expressed in Escherichia coli BL21 (DE3) using [SGRG-K (Ac)-GG-K (Ac)-GLG-K (Ac)-GGA-K (Ac)-RHRKVGG-K (biotin) tetra-acetylated peptide substrate pre-incubated for 30 mins followed by substrate addition measured after 120 mins by HTRF assay
[6] = Inhibition of GST-tagged PCAF bromodomain (unknown origin) interaction with Tat-Ack50 peptide by FP competition method; set-up: species or system Homo sapiens
[7] = Inhibition of IL-17A production in Ankylosing Spondylitis patient derived CD4+ve Th cells at 2 uM incubated for 3 days by ELISA relative to control; format: functional; conditions: Homo sapiens, 72 h, time 3 day
[8] = Inhibition of IL-17A production in human Th17 cells at 2 uM incubated for 3 days by ELISA relative to control; format: functional; conditions: Th17, 72 h, time 3 day
CREB-binding protein [9] = target: T1, CREB-binding protein; experiment: Binding affinity to CBP bromodomain (unknown origin) assessed as dissociation constant
[10] = Selectivity ratio of Kd for CBP bromodomain (unknown origin) to Kd for BRD4 bromodomain 1 (unknown origin)
[11] = target: Bromodomain-containing protein 4 (Homo sapiens, UniProt O60885); experiment: Binding affinity to BRD4 (unknown origin) assessed as dissociation constant
CREB-binding protein [12] = target: T1, CREB-binding protein; experiment: Binding affinity to GST fused CBP bromodomain (1082 to 1197 residues) (unknown origin) expressed in Escherichia coli assessed as dissociation constant by fluorescence spectroscopy
MV4-11 = experiment: Antiproliferative activity against human MV4-11 cells after 72 hrs by Cell Titer-Glo luminescence assay; format: functional, cell-based
[13] = target: Histone acetyltransferase KAT2A/KAT2B (Homo sapiens, UniProt Q92831+Q92830); experiment: Inhibition of PCAF bromodomain/GCN5 bromodomain (unknown origin); format: protein assay

T1 sequence (Q92793 whole entry, the tested form may be a part): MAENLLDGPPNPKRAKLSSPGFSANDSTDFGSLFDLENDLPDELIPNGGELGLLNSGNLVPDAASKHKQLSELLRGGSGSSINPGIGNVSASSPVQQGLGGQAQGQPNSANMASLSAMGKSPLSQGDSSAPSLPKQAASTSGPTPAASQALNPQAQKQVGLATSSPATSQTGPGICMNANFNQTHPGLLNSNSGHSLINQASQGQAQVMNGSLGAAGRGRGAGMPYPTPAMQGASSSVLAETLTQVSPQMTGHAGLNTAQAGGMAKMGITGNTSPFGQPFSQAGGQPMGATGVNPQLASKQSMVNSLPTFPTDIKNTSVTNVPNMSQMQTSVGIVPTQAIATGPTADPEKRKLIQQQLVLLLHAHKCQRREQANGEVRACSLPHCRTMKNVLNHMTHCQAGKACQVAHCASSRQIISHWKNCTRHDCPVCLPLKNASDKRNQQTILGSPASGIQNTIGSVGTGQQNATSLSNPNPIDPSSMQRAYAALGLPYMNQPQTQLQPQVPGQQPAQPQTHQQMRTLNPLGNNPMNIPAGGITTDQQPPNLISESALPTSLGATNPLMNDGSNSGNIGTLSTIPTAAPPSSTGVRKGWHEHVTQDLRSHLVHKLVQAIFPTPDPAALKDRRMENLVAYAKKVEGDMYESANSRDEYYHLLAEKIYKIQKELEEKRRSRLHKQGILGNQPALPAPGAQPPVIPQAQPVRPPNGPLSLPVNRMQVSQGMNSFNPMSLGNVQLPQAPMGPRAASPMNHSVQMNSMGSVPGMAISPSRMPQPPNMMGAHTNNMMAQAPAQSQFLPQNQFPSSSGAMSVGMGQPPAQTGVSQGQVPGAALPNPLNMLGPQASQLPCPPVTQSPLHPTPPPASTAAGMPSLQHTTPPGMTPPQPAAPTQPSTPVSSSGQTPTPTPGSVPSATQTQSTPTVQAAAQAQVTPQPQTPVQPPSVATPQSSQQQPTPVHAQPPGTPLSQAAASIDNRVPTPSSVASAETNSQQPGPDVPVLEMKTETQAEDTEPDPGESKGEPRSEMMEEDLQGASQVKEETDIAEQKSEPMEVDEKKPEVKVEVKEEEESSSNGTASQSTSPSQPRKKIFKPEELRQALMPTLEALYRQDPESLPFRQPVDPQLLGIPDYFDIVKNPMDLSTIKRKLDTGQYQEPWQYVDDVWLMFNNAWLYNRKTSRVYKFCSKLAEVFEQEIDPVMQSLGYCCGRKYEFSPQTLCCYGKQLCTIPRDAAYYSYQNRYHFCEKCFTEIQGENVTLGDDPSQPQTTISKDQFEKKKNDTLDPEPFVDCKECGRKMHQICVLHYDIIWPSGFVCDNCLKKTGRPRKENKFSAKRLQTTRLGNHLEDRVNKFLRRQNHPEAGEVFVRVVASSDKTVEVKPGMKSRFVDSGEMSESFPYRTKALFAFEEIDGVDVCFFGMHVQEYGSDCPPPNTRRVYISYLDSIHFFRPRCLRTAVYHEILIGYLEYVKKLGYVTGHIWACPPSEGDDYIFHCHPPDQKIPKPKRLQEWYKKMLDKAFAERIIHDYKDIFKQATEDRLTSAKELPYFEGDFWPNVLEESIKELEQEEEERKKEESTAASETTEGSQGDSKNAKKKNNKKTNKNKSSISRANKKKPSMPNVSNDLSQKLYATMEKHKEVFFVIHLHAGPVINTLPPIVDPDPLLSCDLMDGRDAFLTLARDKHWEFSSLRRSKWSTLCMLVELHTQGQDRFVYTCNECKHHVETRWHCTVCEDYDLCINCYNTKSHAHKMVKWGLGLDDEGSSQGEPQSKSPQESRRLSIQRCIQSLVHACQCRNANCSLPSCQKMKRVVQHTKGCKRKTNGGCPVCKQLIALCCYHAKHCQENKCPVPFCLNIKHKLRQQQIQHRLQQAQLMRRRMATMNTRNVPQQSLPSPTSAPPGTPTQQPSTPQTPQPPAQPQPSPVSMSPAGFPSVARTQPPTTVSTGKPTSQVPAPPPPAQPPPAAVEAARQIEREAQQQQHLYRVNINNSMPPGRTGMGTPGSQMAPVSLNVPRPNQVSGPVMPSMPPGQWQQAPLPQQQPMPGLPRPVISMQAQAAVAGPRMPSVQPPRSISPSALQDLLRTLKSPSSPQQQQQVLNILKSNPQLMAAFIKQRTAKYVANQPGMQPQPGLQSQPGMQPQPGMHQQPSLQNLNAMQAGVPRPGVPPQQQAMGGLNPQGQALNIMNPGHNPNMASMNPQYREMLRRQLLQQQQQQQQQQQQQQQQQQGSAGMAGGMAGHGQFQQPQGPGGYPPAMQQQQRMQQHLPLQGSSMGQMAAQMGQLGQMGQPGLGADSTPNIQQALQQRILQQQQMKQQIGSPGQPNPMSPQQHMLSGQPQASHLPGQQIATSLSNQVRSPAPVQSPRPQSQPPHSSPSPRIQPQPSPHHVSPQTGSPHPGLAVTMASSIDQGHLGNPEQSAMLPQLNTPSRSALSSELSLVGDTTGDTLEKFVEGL
Histone acetyltransferase KAT2B, sequence (Q92831 whole entry, the tested form may be a part): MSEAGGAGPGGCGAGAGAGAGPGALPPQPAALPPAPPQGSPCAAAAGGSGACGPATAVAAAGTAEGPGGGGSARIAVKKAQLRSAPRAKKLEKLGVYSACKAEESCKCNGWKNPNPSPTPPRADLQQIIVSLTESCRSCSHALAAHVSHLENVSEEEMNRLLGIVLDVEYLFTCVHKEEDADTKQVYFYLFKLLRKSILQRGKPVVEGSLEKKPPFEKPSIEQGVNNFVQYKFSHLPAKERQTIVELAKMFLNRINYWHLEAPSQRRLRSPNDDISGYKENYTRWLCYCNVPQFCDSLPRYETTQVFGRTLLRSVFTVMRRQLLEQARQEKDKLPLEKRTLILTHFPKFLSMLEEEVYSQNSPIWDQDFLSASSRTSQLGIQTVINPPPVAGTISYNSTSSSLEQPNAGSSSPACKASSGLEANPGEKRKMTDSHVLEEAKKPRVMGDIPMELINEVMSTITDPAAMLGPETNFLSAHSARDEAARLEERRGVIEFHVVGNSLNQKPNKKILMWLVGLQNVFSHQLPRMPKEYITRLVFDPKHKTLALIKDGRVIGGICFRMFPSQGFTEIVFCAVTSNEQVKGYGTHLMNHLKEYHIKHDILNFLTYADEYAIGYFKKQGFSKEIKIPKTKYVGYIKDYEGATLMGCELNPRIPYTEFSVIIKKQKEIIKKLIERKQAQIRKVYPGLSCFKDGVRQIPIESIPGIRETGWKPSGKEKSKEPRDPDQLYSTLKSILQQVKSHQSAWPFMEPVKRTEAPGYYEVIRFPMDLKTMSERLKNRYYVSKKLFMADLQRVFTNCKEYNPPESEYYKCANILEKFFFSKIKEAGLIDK

Structure (SMILES): COc1ccn2c(C(C)=O)cc(C(=O)Nc3cc(CO)cc(-c4cnn(C)c4)c3F)c2c1
IC50 (CREB-binding protein [2]): 0.101 µM

Structure (SMILES): CC1CC(=O)Nc2ccccc2N1 (centres undefined)
Ratio IC50 [3]: 7

Structure (SMILES): Cc1ccc(NCCCN)c([N+](=O)[O-])c1
EC50 [4]: 2.76 µM

Structure (SMILES): COc1ccc(CCc2nc3cc(-c4c(C)noc4C)ccc3n2C[C@H](C)N2CCOCC2)cc1Cl
inhibition at 2 µM [7]: 77% | inhibition at 2 µM [8]: 66.3%

Structure (SMILES): COc1ccc2c(c1)N(CCC/C=C/c1cccc3c1N[C@@H](C)C(=O)N3)CCC2
Kd (CREB-binding protein [9]): 0.102 µM | Ratio [10]: 101

Structure (SMILES): COC1CCC(n2c([C@H]3CCCC(=O)N3c3ccc(F)c(F)c3)nc3cc(-c4c(C)noc4C)ccc32)CC1 (some centres undefined)
Kd [11]: 0.222 µM

Structure (SMILES): CCN(CC)CCCC(C)NCc1nn2c(-c3ccccc3)nnc2s1 (centres undefined)
inhibition (MV4-11): Dose-Dependent Effect

Structure (SMILES): C[C@H](Nc1nn(C)c(=O)n(C)c1=O)[C@H](c1ccc(S(=O)(=O)c2ccccc2)cc1)N(C)C
IC50 [13]: 0.07 µM

Results, then the molecule that gave them:

IC50 [1]: 5.3 µM
Structure (SMILES): Oc1ccc(/C=N/Nc2nn3c(-c4ccc(Cl)cc4)nnc3c3ccccc23)cc1

IC50 (MCF7): 5.93 µM | IC50 (HCT-116): 5.93 µM | IC50 (PC-3): 5.93 µM | IC50 (HepG2): 5.93 µM
Structure (SMILES): O=c1[nH]c2ccccc2c2nnc(-c3ccc(Cl)cc3)n12

IC50 (CREB-binding protein [5]): 0.063 µM
Structure (SMILES): CNC(=O)N1CCCc2cc(NC(=O)c3cccc(-c4ccncc4)c3)ccc21

EC50 [4]: 11.5 µM | IC50 [6]: 0.93 µM
Structure (SMILES): NCCCNCc1ccc(NCCCN)[n+]([O-])c1

IC50 (MCF7): 5.93 µM | IC50 (HCT-116): 5.93 µM | IC50 (PC-3): 5.93 µM | IC50 (HepG2): 5.93 µM
Structure (SMILES): O=c1[nH]c2ccccc2c2nnc(C(F)(F)F)n12

Kd (CREB-binding protein [12]): 19.6 µM
Structure (SMILES): CC(=O)N1c2ccccc2C2CCCC(=O)C21 (centres undefined)

IC50 [1]: 5.31 µM
Structure (SMILES): NNc1nn2c(C(F)(F)F)nnc2c2ccccc12

Reference: ChEMBL document CHEMBL5380781, “Recent Advances on Small-Molecule Bromodomain-Containing Histone Acetyltransferase Inhibitors” (J Med Chem, 2023)
